The text below walks through data of patent US5958981A, “γ-diketone compounds with inhibitory activity against platelet aggregation” (Meiji Seika Kabushiki Kaisha, priority 1994, dated 1999).

Counter-ions that a name gives are not always drawn.

The subject of this experiment is human PRP (platelet rich plasma), platelet aggregation. Nature of the experiment: Inhibitory activity against ADP-induced platelet aggregation in human PRP (platelet rich plasma). The format is cell-based. To be noted: aggregation inducer ADP final concentration 5 μM, preincubated 2 min. The protocol: Pharmacological Test: Inhibitory activity against platelet aggregation
The inhibitory activity of the compound according to the present invention against platelet aggregation was examined with human PRP (platelet rich plasma).
Nine volumes of a blood sample was taken out of the vein of a normal human with a syringe in which one volume of a 3.8% sodium citrate solution was charged. The blood sample was centrifuged at 170×g at room temperature for 10 min. The supernatant thus obtained was isolated as PRP. The residual blood sample that PRP had been taken out was centrifuged at 2,700×g for 15 minutes. The supernatant was then taken as platelet poor plasma (PPP).
A platelet aggregation test was conducted with an aggligometer (PAM-8C, manufactured by MEBANICKS Co., Ltd.). Compounds under test were dissolved in a 50% DMSO saline, a 50% methanol saline, or physiological saline. The compound under test and PRP were preincubated for 2 min. An aggregation inducer ADP (CHRONO-PAR REAGENTS 384 ADP, CHRONO-LOG Corp.) was used in the form of a dilution with saline so that the final concentration is 5 μM.
The anti-platelet aggregation activity was determined as an inhibition rate to platelet aggregation effect of ADP in the absence of a compound under test as follows. [formula]
A word on the IC50: it is the point on the concentration scale where inhibition reaches its midpoint. A high value points to lower potency. Regarding `O=C(O)COc1ccc(C(=O)CCC(=O)c2cc3c(s2)CCNC3)cc1OCC(=O)O` [Example 1, [[4-[1,4-Dioxo-4-(4,5,6,7-tetrahydrothieno[3,2-c]pyridin-2-yl)butan-1-yl]-1,2-phenylene]dioxy]diacetic acid trifluoroacetate], the IC50 came to 130 nM.

On to `CCCCOC(=O)COc1ccc(C(=O)CCC(=O)c2cc3c(s2)CCNC3)cc1OCC(=O)OCCCC` [Example 2, Di-n-butyl [[4-[1,4-dioxo-4-(4,5,6,7-tetrahydrothieno[3,2-c]pyridin-2-yl)butan-1-yl]-1,2-phenylene]dioxy]diacetate hydrochloride], for which the IC50 was 2000 nM.

Turning to `N=C(N)c1ccc(C(=O)CCC(=O)c2ccc(OCC(=O)O)c(OCC(=O)O)c2)cc1` [Example 3, [[4-[4-(4-Amidinophenyl)-1,4-dioxobutan-1-yl]-1,2-phenylene]dioxy]diacetic acid trifluoroacetate], the IC50 was found to be 17 nM. Against the preceding compound, the IC50 is about 120-fold lower.

Take `CCCCOC(=O)COc1ccc(C(=O)CCC(=O)c2ccc(C(=N)N)cc2)cc1OCC(=O)OCCCC` [Example 4, Di-n-butyl [[4-[4-(4-amidinophenyl)-1,4-dioxobutan-1-yl]-1,2-phenylene]dioxy]diacetate trifluoroacetate]: it took 23 nM to reach half-maximal inhibition (IC50).

`CCCCOC(=O)COc1ccc(C(=O)CCC(=O)c2ccc(C(=N)N)cc2)cc1` [Example 5, n-Butyl 4-[4-(4-amidinophenyl)-1,4-dioxobutan-1-yl]phenoxyacetate hydroiodide] gave an IC50 of 43 nM.

Take `N=C(N)c1ccc(C(=O)CCC(=O)c2ccc(OCC(=O)O)cc2)cc1` [Example 6, 4-[4-(4-Amidinophenyl)-1,4-dioxobutan-1-yl]phenoxyacetic acid hydrochloride]: the IC50 is less than 100 nM.
